Legend:
barnyardgrass [1] = experiment: Test C flooded paddy test; format: in vivo, Echinochloa crus-galli
Procedure: (§1) At the same time, plants selected from these crop and weed species and also winter barley (Hordeum vulgare L.), blackgrass (Alopecurus myosuroides Huds.), canarygrass (Phalaris minor Retz.), chickweed (Stellaria media (L.) Vill.), downy bromegrass (Bromus tectorum L.), green foxtail (Setaria viridis (L.) Beauv.), Italian ryegrass (Lolium multiflorum Lam.), wheat (Triticum aestivum L.), wild oat (Avenafatua L.) and windgrass (Apera spica-venti (L.) Beauv.) were treated with postemergence applications of some of the test chemicals formulated in the same manner. Plants ranged in height from 2 to 18 cm (1- to 4-leaf stage) for postemergence treatments. Plant species in the flooded paddy test consisted of rice (Oryza sativa), smallflower umbrella sedge (Cyperus difformis L.), ducksalad (Heteranthera limosa (Sw.) Willd.) and barnyardgrass (Echinochloa crus-galli (L.) Beauv.) grown to the 2-leaf stage for testing. Treated plants and controls were maintained in a greenhouse for 12 to 14 days, after which time all species were compared to controls and visually evaluated. Plant response ratings, summarized in Table C, are based on a scale of 0 to 100 where 0 is no effect and 100 is complete control. A dash (-) response means no test result.

barnyardgrass [2] = experiment: Test B flooded paddy test; format: in vivo, Echinochloa crus-galli; conditions: 1000 g ai/ha, scale 0 to 100 (0 no effect, 100 complete control)
Procedure, shortened: (§2)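 After treating 2-leaf paddy plants or 2–18 cm postemergence plants (1 to 4 leaves) with formulated chemical, researchers kept them in a greenhouse for 13–15 days. Effects were judged visually versus controls: 0 indicates none, 100 total control.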

[3] = tested on: small flower umbrella sedge; experiment: Test B flooded paddy test; format: in vivo, Cyperus difformis; conditions: 1000 g ai/ha, scale 0 to 100 (0 no effect, 100 complete control)
Procedure, shortened: as §2

wheat = experiment: Test B postemergence herbicide test; format: in vivo, Triticum aestivum; parameters: key to Wheat plant response rating: 0 = no effect, 100 = complete control
Procedure, shortened: (§3)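 Treated at 2-leaf (paddy) or 1–4-leaf, 2–18 cm (postemergence); greenhouse 13–15 d; visual score vs control, 0 none to 100 complete control; dash = not tested.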

corn = experiment: Test B pre-/postemergence herbicide test; format: in vivo, Zea mays; conditions: for Corn plant response rating: scale 0 (no effect) to 100 (complete control)
Procedure, shortened: (§4)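 Test chemicals in a non-phytotoxic solvent mixture with surfactant were applied preemergence to seeded species and postemergence to plants 2-18 cm tall (1- to 4-leaf stage); rice and barnyardgrass were also tested in a flooded paddy at the 2-leaf stage. Visual rating versus controls after 13-15 days in greenhouse, scale 0 (no effect) to 100 (complete control).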

barnyardgrass [4] = experiment: Test B pre-/postemergence herbicide test; format: in vivo, Echinochloa crus-galli; conditions: for Barnyardgrass plant response rating: scale 0 (no effect) to 100 (complete control)
Procedure, shortened: (§5)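 Flooded paddy rice and barnyardgrass were treated at the 2-leaf stage; upland plantings received compound either on sown seed or on 1- to 4-leaf seedlings. All were kept 13–15 days in a greenhouse and scored visually, 0–100, relative to untreated plants.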

pigweed = experiment: Test B pre-/postemergence herbicide test; format: in vivo, Amaranthus retroflexus; conditions: for Pigweed plant response rating: scale 0 (no effect) to 100 (complete control)
Procedure, shortened: as §4

lambsquarters = experiment: Test B pre-/postemergence herbicide test; format: in vivo, Chenopodium album; conditions: for Lambsquarters plant response rating: scale 0 (no effect) to 100 (complete control)
Procedure, shortened: as §4

wild oat = experiment: Test B postemergence herbicide test; format: in vivo, Avena fatua; conditions: scale 0 (no effect) to 100 (complete control)
Procedure, shortened: as §3

large crabgrass = experiment: Test B pre-/postemergence herbicide test; format: in vivo, Digitaria sanguinalis; conditions: for Crabgrass, Large plant response rating: scale 0 (no effect) to 100 (complete control)
Procedure, shortened: as §4

ducksalad [5] = experiment: Test C flooded paddy test; format: in vivo, Heteranthera limosa
Procedure: as §1

velvetleaf = experiment: Test B pre-/postemergence herbicide test; format: in vivo, Abutilon theophrasti; conditions: for Velvetleaf plant response rating: scale 0 (no effect) to 100 (complete control)
Procedure, shortened: as §4

blackgrass = experiment: Test B postemergence herbicide test; format: in vivo, Alopecurus myosuroides; conditions: scale 0 (no effect) to 100 (complete control)
Procedure, shortened: as §2

cocklebur = experiment: Test B pre-/postemergence herbicide test; format: in vivo, Xanthium strumarium; conditions: for Cocklebur plant response rating: scale 0 (no effect) to 100 (complete control)
Procedure, shortened: as §5

morningglory = experiment: Test B pre-/postemergence herbicide test; format: in vivo, Ipomoea coccinea; conditions: for Morningglory plant response rating: scale 0 (no effect) to 100 (complete control)
Procedure, shortened: as §5

[6] = tested on: smallflower umbrella sedge; experiment: Test C flooded paddy test; format: in vivo, Cyperus difformis
Procedure: as §1

giant foxtail = experiment: Test B pre-/postemergence herbicide test; format: in vivo, Setaria faberi; conditions: for Foxtail, Giant plant response rating: scale 0 (no effect) to 100 (complete control)
Procedure, shortened: as §4

Surinam grass = experiment: Test B pre-/postemergence herbicide test; format: in vivo, Urochloa decumbens; conditions: for Surinam Grass plant response rating: scale 0 (no effect) to 100 (complete control)
Procedure, shortened: as §4

rice [7] = experiment: Test B flooded paddy test; format: in vivo, Oryza sativa; conditions: 1000 g ai/ha, scale 0 to 100 (0 no effect, 100 complete control)
Procedure, shortened: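 Paddy species grown to the 2-leaf stage under flooding; blackgrass sprayed postemergence at 2–18 cm (1- to 4-leaf stage). Plants kept in a greenhouse for 13 to 15 days, then visually rated against controls on 0 (no effect) to 100 (complete control).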

rice [8] = experiment: Test C flooded paddy test; format: in vivo, Oryza sativa
Procedure: as §1

ducksalad [9] = experiment: Test B flooded paddy test; format: in vivo, Heteranthera limosa; conditions: 1000 g ai/ha, scale 0 to 100 (0 no effect, 100 complete control)
Procedure, shortened: as §2

[10] = 125 g ai/ha, scale 0 to 100 (0 no effect, 100 complete control)
[11] = 250 g ai/ha, scale of 0 to 100, 0 is no effect, 100 is complete control
[12] = 500 g ai/ha, visual rating after 12 to 14 days, scale 0 to 100 (0 no effect, 100 complete control)
[13] = 125 g ai/ha, 0 is no effect, 100 is complete control, preemergence
[14] = 125 g ai/ha, visual rating, postemergence

Cc1nn(C(C)C)nc1C(=O)Nc1cccc(C(=O)N(C)C)c1 [Compound 404]
Barnyardgrass plant response rating (barnyardgrass [1]; 62 g ai/ha, scale 0 to 100 (0 no effect, 100 complete control)): 0
Barnyardgrass plant response rating (barnyardgrass [1]; [10]): 0
Barnyardgrass plant response rating (barnyardgrass [1]; [11]): 20
Plant response rating, Barnyardgrass (barnyardgrass [1]; [12]): 30
Barnyardgrass plant response rating (barnyardgrass [2]): 90
Sedge, Umbrella plant response rating [3]: 90
Wheat plant response rating (wheat; 125 g ai/ha, visual rating, scale 0 (no effect) to 100 (complete control), postemergence): 0
Wheat plant response rating (wheat; 500 g ai/ha, scale 0 to 100, 0 no effect, 100 complete control, preemergence): 100
Wheat plant response rating (wheat; Postemergence, 500 g ai/ha, scale 0 (no effect) to 100 (complete control)): 0
Plant response rating (0 to 100 scale), Corn (corn; [13]): 0
Corn plant response rating (corn; [14]): 0
Corn plant response rating (corn; Postemergence, 500 g ai/ha): 10
Plant response rating (0 to 100 scale), Barnyardgrass (barnyardgrass [4]; [13]): 70
Barnyardgrass plant response rating (barnyardgrass [4]; [14]): 10
Barnyardgrass plant response rating (barnyardgrass [4]; Postemergence, 500 g ai/ha): 10
Plant response rating (0 to 100 scale), Pigweed (pigweed; [13]): 70
Pigweed plant response rating (pigweed; [14]): 10
Pigweed plant response rating (pigweed; Postemergence, 500 g ai/ha): 30
Plant response rating (0 to 100 scale), Lambsquarters (lambsquarters; [13]): 90
Lambsquarters plant response rating (lambsquarters; [14]): 60
Lambsquarters plant response rating (lambsquarters; Postemergence, 500 g ai/ha): 80
Oat, Wild plant response rating (wild oat; [14]): 0
Oat, Wild plant response rating (wild oat; Postemergence, 500 g ai/ha): 10
Plant response rating (0 to 100 scale), Crabgrass, Large (large crabgrass; [13]): 70
Crabgrass, Large plant response rating (large crabgrass; [14]): 0
Crabgrass, Large plant response rating (large crabgrass; Postemergence, 500 g ai/ha): 10
Ducksalad plant response rating (ducksalad [5]; 62 g ai/ha, scale 0 to 100): 10
Ducksalad plant response rating (ducksalad [5]; [10]): 10
Ducksalad plant response rating (ducksalad [5]; [11]): 20
Plant response rating, Ducksalad (ducksalad [5]; [12]): 30
Plant response rating (0 to 100 scale), Velvetleaf (velvetleaf; [13]): 20
Velvetleaf plant response rating (velvetleaf; [14]): 30
Velvetleaf plant response rating (velvetleaf; Postemergence, 500 g ai/ha): 30
Blackgrass plant response rating (blackgrass; [14]): 10
Blackgrass plant response rating (blackgrass; Postemergence, 500 g ai/ha): 30
Plant response rating (0 to 100 scale), Cocklebur (cocklebur; [13]): 40
Cocklebur plant response rating (cocklebur; [14]): 10
Cocklebur plant response rating (cocklebur; Postemergence, 500 g ai/ha): 30
Plant response rating (0 to 100 scale), Morningglory (morningglory; [13]): 60
Morningglory plant response rating (morningglory; [14]): 20
Morningglory plant response rating (morningglory; Postemergence, 500 g ai/ha): 70
Sedge, Umbrella plant response rating ([6]; 62 g ai/ha, scale 0 to 100): 70
Sedge, Umbrella plant response rating [6, 10]: 75
Sedge, Umbrella plant response rating [6, 11]: 80
Plant response rating, Sedge, Umbrella [6, 12]: 85
Plant response rating (0 to 100 scale), Foxtail, Giant (giant foxtail; [13]): 30
Foxtail, Giant plant response rating (giant foxtail; [14]): 10
Foxtail, Giant plant response rating (giant foxtail; Postemergence, 500 g ai/ha): 40
Plant response rating (0 to 100 scale), Surinam Grass (Surinam grass; [13]): 40
Surinam Grass plant response rating (Surinam grass; [14]): 0
Surinam Grass plant response rating (Surinam grass; Postemergence, 500 g ai/ha): 10
Rice plant response rating (rice [7]): 60
Rice plant response rating (rice [8]; 62 g ai/ha, scale 0 to 100): 0
Rice plant response rating (rice [8]; [10]): 0
Rice plant response rating (rice [8]; [11]): 45
Plant response rating, Rice (rice [8]; [12]): 50
Ducksalad plant response rating (ducksalad [9]): 90

Reference: patent publication US20060069132A1, “Azolecarboxamide herbicides” (priority 2004, published 2006)
